Measurements published in PMC5609601 (Brazilian Journal of Medical and Biological Research, 2017).
“Also recorded” adds a separate entry of the source. Read-outs that look alike come from different tables or passages of the source.

Legend:
[1] = Adsorption of the constituents by the intestinal wall; assay type: in vitro ADME, rat; settings: for Absorption in the intestinal wall: curcumin SEDDS; for Concentration in incubation solution with intestinal wall: 37.5±0.5°C
[2] = test system: rat small intestines; test: In situ single pass intestinal perfusion: absorption site and drug concentration; assay type: in vivo; settings: for Comparison of absorption among intestinal segments / Concentration dependence of absorption: duodenum; for Comparison of absorption among intestinal segments: jejunum, ileum, colon; for Comparison of absorption among intestinal segments / Main intestinal absorption site: higher concentration group; for Concentration dependence of absorption: low, medium, high, higher concentrations; for Main intestinal absorption site: different intestinal segments; for Transport (absorption) mechanism: rat small intestine
[3] = Stability of curcumin constituents; assay type: physicochemical, rat; settings: for Concentration in blank intestinal perfusion fluid: 37.5±0.5°C, drug-containing SEDDS; for Stability in pH 6.8 K-R blank intestinal perfusion fluid: within 8 h, curcumin SEDDS
[4] = test system: P-gp; assay type: in vivo, rat; settings: for Influence of verapamil hydrochloride on absorption / Influence of verapamil hydrochloride on Ka / Influence of verapamil hydrochloride on Papp / Influence of verapamil hydrochloride on A%: ileum; for Influence of verapamil hydrochloride on Ka / Influence of verapamil hydrochloride on Papp: high-concentration inhibitor; for Substrate of P-glycoprotein: inferred from verapamil hydrochloride effect
[5] = target: MRP2 (Rattus norvegicus, UniProt Q63120); assay type: in vivo; settings: for Substrate of MRP2: inferred from probenecid effect
Sequence of MRP2 (Q63120 whole entry): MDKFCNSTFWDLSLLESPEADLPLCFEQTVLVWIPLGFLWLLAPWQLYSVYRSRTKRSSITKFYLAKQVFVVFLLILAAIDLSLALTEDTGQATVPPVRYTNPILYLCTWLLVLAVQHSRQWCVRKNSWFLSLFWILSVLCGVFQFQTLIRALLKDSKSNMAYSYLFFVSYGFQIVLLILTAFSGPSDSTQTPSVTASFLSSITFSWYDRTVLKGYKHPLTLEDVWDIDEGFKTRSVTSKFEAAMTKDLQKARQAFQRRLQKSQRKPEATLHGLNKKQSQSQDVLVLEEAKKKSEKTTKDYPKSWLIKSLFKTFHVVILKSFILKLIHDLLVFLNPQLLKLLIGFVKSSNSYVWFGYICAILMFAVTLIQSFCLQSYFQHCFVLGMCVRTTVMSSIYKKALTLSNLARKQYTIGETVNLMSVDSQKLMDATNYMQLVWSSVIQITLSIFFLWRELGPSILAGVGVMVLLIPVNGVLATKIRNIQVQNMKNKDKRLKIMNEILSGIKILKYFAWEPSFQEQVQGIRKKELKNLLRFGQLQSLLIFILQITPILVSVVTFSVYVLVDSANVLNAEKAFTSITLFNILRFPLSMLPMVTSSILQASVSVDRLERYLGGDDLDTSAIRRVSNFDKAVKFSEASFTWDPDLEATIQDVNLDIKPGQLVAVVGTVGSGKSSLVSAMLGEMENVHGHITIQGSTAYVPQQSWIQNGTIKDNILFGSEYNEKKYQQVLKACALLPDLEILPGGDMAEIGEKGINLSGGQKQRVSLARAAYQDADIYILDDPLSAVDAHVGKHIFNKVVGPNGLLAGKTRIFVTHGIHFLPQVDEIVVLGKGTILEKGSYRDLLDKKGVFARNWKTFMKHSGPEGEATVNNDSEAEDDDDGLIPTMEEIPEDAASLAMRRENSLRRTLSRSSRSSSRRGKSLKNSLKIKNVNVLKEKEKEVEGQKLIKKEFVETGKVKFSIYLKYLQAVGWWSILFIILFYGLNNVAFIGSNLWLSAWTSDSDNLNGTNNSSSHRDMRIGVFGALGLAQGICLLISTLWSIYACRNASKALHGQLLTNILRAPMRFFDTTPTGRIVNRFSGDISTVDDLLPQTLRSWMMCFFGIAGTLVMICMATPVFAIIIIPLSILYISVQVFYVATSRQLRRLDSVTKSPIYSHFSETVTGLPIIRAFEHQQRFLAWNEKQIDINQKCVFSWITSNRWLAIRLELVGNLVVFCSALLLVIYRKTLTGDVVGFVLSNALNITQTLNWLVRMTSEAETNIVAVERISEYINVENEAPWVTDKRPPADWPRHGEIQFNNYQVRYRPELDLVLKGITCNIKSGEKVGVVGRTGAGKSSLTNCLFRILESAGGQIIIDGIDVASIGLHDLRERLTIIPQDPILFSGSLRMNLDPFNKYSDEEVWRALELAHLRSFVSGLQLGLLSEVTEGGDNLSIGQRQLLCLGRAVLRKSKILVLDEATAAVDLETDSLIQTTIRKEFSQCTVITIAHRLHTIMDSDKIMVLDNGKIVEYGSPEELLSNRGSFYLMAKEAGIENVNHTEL

[6] = test system: rat small intestines; assay type: in vivo; settings: duodenum; for Influence of 2,4-dinitrophenol on Ka / Influence of 2,4-dinitrophenol on Papp / Influence of 2,4-dinitrophenol on A%: compared with the group without inhibitor; for Influence of 2,4-dinitrophenol on A%: 1.0, 2.0, 5.0 mmol/L
[7] = jejunum, high-concentration probenecid
[8] = jejunum, probenecid 0.02, 0.04, 0.08 mmol/L

SMILES | Absorption in the intestinal wall [1] | Concentration in incubation solution with intestinal wall ([1]; time 0 min) [µg/mL] | Concentration in incubation solution with intestinal wall ([1]; time 30 min) [µg/mL] | Concentration in incubation solution with intestinal wall ([1]; time 60 min) [µg/mL] | Concentration in incubation solution with intestinal wall ([1]; time 90 min) [µg/mL] | Concentration in incubation solution with intestinal wall ([1]; time 120 min) [µg/mL] | Comparison of absorption among intestinal segments [2] | Concentration dependence of absorption [2] | Main intestinal absorption site [2] | Absorption in duodenum compared to colon ([2]; one-way ANOVA) | Transport (absorption) mechanism [2] | Concentration in blank intestinal perfusion fluid ([3]; time 0 h) [µg/mL] | Concentration in blank intestinal perfusion fluid ([3]; time 1 h) [µg/mL] | Concentration in blank intestinal perfusion fluid ([3]; time 2 h) [µg/mL] | Concentration in blank intestinal perfusion fluid ([3]; time 4 h) [µg/mL] | Concentration in blank intestinal perfusion fluid ([3]; time 8 h) [µg/mL] | Stability in pH 6.8 K-R blank intestinal perfusion fluid [3] | Influence of verapamil hydrochloride on absorption [4] | Influence of verapamil hydrochloride on Papp [4] | Influence of probenecid on Papp [5, 7] | also measured
COc1cc(/C=C/C(O)=C/C(=O)/C=C/c2ccc(O)cc2)ccc1O [DMCur, demethoxycurcumin] | no obvious absorption | 166.950 | 165.354 | 164.023 | 163.724 | 162.104 | duodenum > colon ≈ jejunum > ileum; also recorded: better in the duodenum and relatively poorer in the ileum | saturation phenomenon | duodenum | increased significantly (P<0.05) | active transport in the carrier-mediated transport | 159 | 158 | 157 | 156 | 154 | stable | significantly improve the absorption | significantly accelerated | significantly increased | Absorption in duodenum compared with ileum ([2]; one-way ANOVA): increased (P<0.01) in an extremely significant manner; Absorption in jejunum compared with ileum ([2]; one-way ANOVA): increased significantly (P<0.05); Influence of verapamil hydrochloride on Ka [4]: significantly accelerated; Influence of verapamil hydrochloride on A% ([4]; medium-concentration and high-concentration inhibitor): significant increase; Substrate of P-glycoprotein [4]: may be the substrates; Substrate of MRP2 [5]: may be the substrates; Change of A% with probenecid concentration ([5]; jejunum): increased with the increase in probenecid concentration; Change of Ka with probenecid concentration ([5]; jejunum): increased with the increase in probenecid concentration; Influence of probenecid on A% [5, 8]: significantly increased; Energy dependence of intestinal absorption process [6]: energy-dependent action; Influence of 2,4-dinitrophenol on Ka [6]: decreased significantly (P<0.05); Influence of 2,4-dinitrophenol on Papp [6]: decreased significantly (P<0.05); Influence of 2,4-dinitrophenol on A% [6]: decreased in an extremely significant manner (P<0.01)
O=C(/C=C/c1ccc(O)cc1)CC(=O)/C=C/c1ccc(O)cc1 [BDMCur, bisdemethoxycurcumin] | no obvious absorption | 27.300 | 27.288 | 27.247 | 27.173 | 26.253 | not significantly different (P>0.05); also recorded: better in the duodenum and relatively poorer in the ileum | concentration inhibiting effect | duodenum | increased (P<0.01) in an extremely significant manner | active transport in the carrier-mediated transport | 26 | 26 | 26 | 26 | 25 | stable | significantly improve the absorption | significantly accelerated | significantly increased | Influence of verapamil hydrochloride on Ka [4]: significantly accelerated; Influence of verapamil hydrochloride on A% ([4]; verapamil hydrochloride 0.05, 0.1, 0.5 mmol/L): almost no influence; Substrate of P-glycoprotein [4]: may be the substrates; Substrate of MRP2 [5]: may be the substrates; Change of A% when probenecid concentration was further increased ([5]; jejunum, above medium concentration): barely changed; Influence of probenecid on Ka [5, 7]: significantly increased; Influence of probenecid on A% ([5]; jejunum, medium-concentration probenecid): significantly increased; Influence of probenecid on A% [5, 8]: significantly increased; Energy dependence of intestinal absorption process [6]: energy-dependent action; Influence of 2,4-dinitrophenol on Ka [6]: decreased significantly (P<0.05); Influence of 2,4-dinitrophenol on Papp [6]: decreased significantly (P<0.05); Influence of 2,4-dinitrophenol on A% [6]: decreased in an extremely significant manner (P<0.01)
COc1cc(/C=C/C(=O)CC(=O)/C=C/c2ccc(O)c(OC)c2)ccc1O [Cur, curcumin] | – | 719.250 | 717.346 | 716.858 | 716.019 | 701.751 | – | concentration inhibiting effect | – | – | – | 685 | 684 | 682 | 678 | 668 | stable | – | significantly accelerated | significantly increased | Change of A% with probenecid concentration ([5]; jejunum): increased with the increase in probenecid concentration; Change of Ka with probenecid concentration ([5]; jejunum): increased with the increase in probenecid concentration
